Measured values as given in US20220361547A1, “TASTE MODIFYING COMPOSITIONS AND USES THEREOF” (Firmenich Incorporated, priority 2019, published 2022).
Where a name gives a salt, the structure may show the parent alone.

Assay: Sensory testing: taste testers rate sweetness of aqueous sweetener compositions without and with A1
Assay type: in vivo, human
Settings: scale from 1 to 10
Description: Compositions of various sweetening agents were prepared without any additive and with the sodium salt of N-(1-((4-amino-2,2-dioxo-1H-benzo[c][1,2,6]thiadiazin-5-yl)oxy)-2-methyl-propan-2-yl)isonicotinamide (A1) added at various concentrations. Taste testers were asked to rate the sweetness of the resulting aqueous compositions for sweetness on a scale from 1 to 10.

OC[C@H]1O[C@H](O[C@]2(CCl)O[C@H](CCl)[C@@H](O)[C@@H]2O)[C@H](O)[C@@H](O)[C@H]1Cl [Sucralose, reference compound]
sweetness rating (aqueous Sucralose (80 ppm), No A1): 3.3

O=C(CO)C(O)C(O)C(O)CO (stereo not shown) [Allulose, reference compound]
sweetness rating (aqueous Allulose (3.5%), No A1): 3.0

CC(C)(COc1cccc2c1C(N)=NS(=O)(=O)N2)NC(=O)c1ccncc1 [A1, sodium salt of N-(1-((4-amino-2,2-dioxo-1H-benzo[c][1,2,6]thiadiazin-5-yl)oxy)-2-methyl-propan-2-yl)isonicotinamide]
sweetness rating (aqueous Allulose (3.5%) with 4 ppm A1): 3.7 | sweetness rating (aqueous Allulose (3.5%) with 8 ppm A1): 4.7 | sweetness rating (aqueous Allulose (3.5%) with 12 ppm A1): 4.1 | sweetness rating (aqueous Allulose (3.5%) with 16 ppm A1): 5.5 | sweetness rating (aqueous D-(+)-Glucose (7%) with 4 ppm A1): 4.5 | sweetness rating (aqueous D-(+)-Glucose (7%) with 8 ppm A1): 4.2 | sweetness rating (aqueous D-(+)-Glucose (7%) with 12 ppm A1): 5.2 | sweetness rating (aqueous D-(+)-Glucose (7%) with 16 ppm A1): 5.7 | sweetness rating (aqueous Erythritol (5%) with 4 ppm A1): 4.4 | sweetness rating (aqueous Erythritol (5%) with 8 ppm A1): 4.4 | sweetness rating (aqueous Erythritol (5%) with 12 ppm A1): 5.7 | sweetness rating (aqueous Erythritol (5%) with 16 ppm A1): 6.0 | sweetness rating (aqueous Fructose (7%) with 4 ppm A1): 7.1 | sweetness rating (aqueous Fructose (7%) with 8 ppm A1): 7.4 | sweetness rating (aqueous Fructose (7%) with 12 ppm A1): 8.0 | sweetness rating (aqueous Fructose (7%) with 16 ppm A1): 8.3 | sweetness rating (aqueous HFCS (7%) with 4 ppm A1): 5.9 | sweetness rating (aqueous HFCS (7%) with 8 ppm A1): 7.2 | sweetness rating (aqueous HFCS (7%) with 12 ppm A1): 7.4 | sweetness rating (aqueous Reb M (200 ppm) with 4 ppm A1): 5.3 | sweetness rating (aqueous Reb M (200 ppm) with 8 ppm A1): 6.3 | sweetness rating (aqueous Reb M (200 ppm) with 12 ppm A1): 6.1 | sweetness rating (aqueous Reb M (200 ppm) with 16 ppm A1): 7.3 | sweetness rating (aqueous Sucralose (80 ppm) with 4 ppm A1): 6.1 | sweetness rating (aqueous Sucralose (80 ppm) with 8 ppm A1): 6.6 | sweetness rating (aqueous Sucralose (80 ppm) with 12 ppm A1): 7.1 | sweetness rating (aqueous Sucralose (80 ppm) with 16 ppm A1): 7.0 | sweetness rating (aqueous Sucrose (5%) with 4 ppm A1): 6.4 | sweetness rating (aqueous Sucrose (5%) with 8 ppm A1): 7.3 | sweetness rating (aqueous Sucrose (5%) with 12 ppm A1): 8.0

C=C1C[C@@]23CC[C@H]4[C@@](C)(CCC[C@@]4(C)C(=O)O[C@@H]4O[C@H](CO)[C@@H](O)[C@H](O[C@@H]5O[C@H](CO)[C@@H](O)[C@H](O)[C@H]5O)[C@H]4O[C@@H]4O[C@H](CO)[C@@H](O)[C@H](O)[C@H]4O)[C@@H]2CC[C@]1(O[C@@H]1O[C@H](CO)[C@@H](O)[C@H](O[C@@H]2O[C@H](CO)[C@@H](O)[C@H](O)[C@H]2O)[C@H]1O[C@@H]1O[C@H](CO)[C@@H](O)[C@H](O)[C@H]1O)C3 [Reb M, Rebaudioside M, reference compound]
sweetness rating (aqueous Reb M (200 ppm), No A1): 4.7

OC[C@@H](O)[C@@H](O)CO [Erythritol, reference compound]
sweetness rating (aqueous Erythritol (5%), No A1): 4.0

O=C[C@H](O)[C@@H](O)[C@H](O)[C@H](O)CO [D-(+)-Glucose, reference compound]
sweetness rating (aqueous D-(+)-Glucose (7%), No A1): 3.8

O=C(CO)[C@@H](O)[C@H](O)[C@H](O)CO [Fructose, reference compound]
sweetness rating (aqueous Fructose (7%), No A1): 7.1

OC[C@H]1O[C@@](CO)(O[C@H]2O[C@H](CO)[C@@H](O)[C@H](O)[C@H]2O)[C@@H](O)[C@@H]1O [Sucrose, reference compound]
sweetness rating (aqueous Sucrose (5%), No A1): 3.6
